The text below walks through data of ChEMBL document CHEMBL5375983, “Discovery of YSR734: A Covalent HDAC Inhibitor with Cellular Activity in Acute Myeloid Leukemia and Duchenne Muscular Dystrophy” (J Med Chem, 2023).

Active and inactive are the calls of the source. The rule behind the calls is not given here.

For series [1], the target named is T1, Histone deacetylase 2 (Homo sapiens, UniProt Q92769). Nature of the series: Inhibition of HDAC2 (unknown origin) using 6-carboxyfluorescein peptide as substrate preincubated with compound for 6 hrs followed by substrate addition by electrophoretic mobility shift assay.
T1 sequence (Q92769 whole entry): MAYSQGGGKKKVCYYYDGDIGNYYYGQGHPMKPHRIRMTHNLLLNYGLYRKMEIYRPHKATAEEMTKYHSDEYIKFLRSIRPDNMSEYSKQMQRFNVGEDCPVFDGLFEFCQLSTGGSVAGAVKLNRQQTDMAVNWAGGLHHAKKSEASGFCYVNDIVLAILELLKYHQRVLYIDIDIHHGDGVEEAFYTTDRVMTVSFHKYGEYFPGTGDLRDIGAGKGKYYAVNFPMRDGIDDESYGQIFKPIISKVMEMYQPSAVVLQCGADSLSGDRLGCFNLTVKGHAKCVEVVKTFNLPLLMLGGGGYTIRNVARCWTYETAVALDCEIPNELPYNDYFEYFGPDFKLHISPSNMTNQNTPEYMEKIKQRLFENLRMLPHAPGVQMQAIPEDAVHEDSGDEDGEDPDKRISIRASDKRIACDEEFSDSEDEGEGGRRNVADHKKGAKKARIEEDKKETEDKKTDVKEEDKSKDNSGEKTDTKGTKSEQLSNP
Another series concerns the target T2, Histone deacetylase 8 (Homo sapiens, UniProt Q9BY41).
T2 sequence (Q9BY41 whole entry): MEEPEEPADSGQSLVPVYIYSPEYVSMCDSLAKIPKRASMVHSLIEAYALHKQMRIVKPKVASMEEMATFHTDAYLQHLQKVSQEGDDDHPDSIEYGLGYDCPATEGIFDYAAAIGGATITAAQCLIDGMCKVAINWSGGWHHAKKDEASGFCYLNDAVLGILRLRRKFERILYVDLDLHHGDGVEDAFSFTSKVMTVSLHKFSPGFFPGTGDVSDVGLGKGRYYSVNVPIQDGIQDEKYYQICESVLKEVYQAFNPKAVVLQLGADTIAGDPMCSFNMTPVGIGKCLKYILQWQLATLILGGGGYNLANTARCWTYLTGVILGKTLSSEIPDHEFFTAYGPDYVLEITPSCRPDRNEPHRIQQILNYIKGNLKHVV
Nature of the series: Inhibition of full length recombinant human HDAC8 expressed in Sf9 cells using 6-carboxyfluorescein peptide as substrate preincubated with compound followed by substrate addition and measured after 3 hrs by electrophoretic mobility shift assay.

Series [2] deals with T3, Histone deacetylase 1 (Homo sapiens, UniProt Q13547). Description: Inhibition of HDAC1 (unknown origin) using 6-carboxyfluorescein peptide as substrate preincubated with compound followed by substrate addition by electrophoretic mobility shift assay.
T3 sequence (Q13547 whole entry): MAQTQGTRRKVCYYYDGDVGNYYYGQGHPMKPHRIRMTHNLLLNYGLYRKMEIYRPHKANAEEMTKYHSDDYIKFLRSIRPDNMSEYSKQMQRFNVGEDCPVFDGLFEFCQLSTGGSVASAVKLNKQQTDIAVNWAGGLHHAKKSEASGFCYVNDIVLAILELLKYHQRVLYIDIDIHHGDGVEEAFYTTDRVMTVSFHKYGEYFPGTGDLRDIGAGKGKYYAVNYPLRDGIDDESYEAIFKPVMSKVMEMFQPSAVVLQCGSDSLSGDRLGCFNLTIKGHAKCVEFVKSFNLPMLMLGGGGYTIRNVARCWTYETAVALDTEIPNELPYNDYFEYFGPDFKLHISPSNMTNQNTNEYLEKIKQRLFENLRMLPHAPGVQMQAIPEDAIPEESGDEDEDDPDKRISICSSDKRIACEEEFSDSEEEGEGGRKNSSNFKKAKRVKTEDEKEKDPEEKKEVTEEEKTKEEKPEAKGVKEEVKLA
Another series concerns RS4-11. Nature of the series: Cytotoxicity against human RS4-11 cells assessed as inhibition of cell growth incubated for 72 hrs by celltiter-blue viability assay. Type of series: functional, cell-based. Conditions: RS4-11, 72 h.
Series [3] can be described thus: Half life in CD-1 mouse at 10 mg/kg, ip measured upto 12 hrs by LC-MS/MS analysis. Type of series: ADME, organism-based. Conditions: in vivo.
Series [4] in a line: Cytotoxicity against human MRC9 cells assessed as inhibition of cell growth incubated for 72 hrs by celltiter-blue viability assay. Type of series: toxicity, cell-based.
The target in series [5] is T4, Histone deacetylase 3 (Homo sapiens, UniProt O15379). Description: Inhibition of full length recombinant human HDAC3 expressed in Sf9 cells using 6-carboxyfluorescein peptide as substrate preincubated with compound for 6 hrs followed by substrate addition and measured after 3 hrs by electrophoretic mobility shift assay. Type of series: cell-based.
T4 sequence (O15379 whole entry): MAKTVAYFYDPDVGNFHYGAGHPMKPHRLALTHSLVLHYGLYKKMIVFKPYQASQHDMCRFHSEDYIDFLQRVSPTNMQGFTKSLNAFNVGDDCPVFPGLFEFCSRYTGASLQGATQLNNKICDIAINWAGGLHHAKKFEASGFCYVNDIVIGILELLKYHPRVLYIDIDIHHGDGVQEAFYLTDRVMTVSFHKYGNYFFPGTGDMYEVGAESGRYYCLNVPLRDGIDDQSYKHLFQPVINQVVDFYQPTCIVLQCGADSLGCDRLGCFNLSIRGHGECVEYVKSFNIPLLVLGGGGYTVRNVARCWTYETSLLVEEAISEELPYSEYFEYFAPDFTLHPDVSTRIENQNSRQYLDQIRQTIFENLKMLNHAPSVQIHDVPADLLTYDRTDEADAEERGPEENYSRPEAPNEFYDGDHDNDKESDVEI
A short description of series [6]: Tmax in CD-1 mouse at 10 mg/kg, ip measured upto 12 hrs by LC-MS/MS analysis. Type of series: ADME, organism-based. The following applies: in vivo.
The target of series [7] is T1, Histone deacetylase 2. Description: Inhibition of HDAC2 (unknown origin) using 6-carboxyfluorescein peptide as substrate preincubated with compound followed by substrate addition by electrophoretic mobility shift assay.
Series [8] deals with T3, Histone deacetylase 1. Nature of the series: Inhibition of HDAC1 (unknown origin) using 6-carboxyfluorescein peptide as substrate preincubated with compound for 6 hrs followed by substrate addition by electrophoretic mobility shift assay.
Series [9] can be described thus: AUCinfinity in CD-1 mouse at 10 mg/kg, ip measured upto 12 hrs by LC-MS/MS analysis. Type of series: ADME, organism-based. Also on record: time < 12 hrs, dose 10 mg/kg, route ip. The following applies: in vivo.
The target in series [10] is T4, Histone deacetylase 3. Description: Inhibition of full length recombinant human HDAC3 expressed in Sf9 cells using 6-carboxyfluorescein peptide as substrate preincubated with compound for 2 hrs followed by substrate addition and measured after 3 hrs by electrophoretic mobility shift assay. Type of series: cell-based.
Series [11] can be described thus: Cmax in CD-1 mouse at 10 mg/kg, ip measured upto 12 hrs by LC-MS/MS analysis. Type of series: ADME, organism-based. More on the design: time < 12 hrs, dose 10 mg/kg, route ip. The following applies: in vivo.
For series [12], the target named is T4, Histone deacetylase 3. Nature of the series: Inhibition of full length recombinant human HDAC3 expressed in Sf9 cells using 6-carboxyfluorescein peptide as substrate preincubated with compound followed by substrate addition and measured after 3 hrs by electrophoretic mobility shift assay. Type of series: cell-based.
Series [13] deals with MV4-11. Description: Cytotoxicity against human MV4-11 cells assessed as inhibition of cell growth incubated for 72 hrs by celltiter-blue viability assay. The following applies: MV4-11, 72 h. Type of series: functional, cell-based.
In series [14] the target is T1, Histone deacetylase 2. Description: Inhibition of HDAC2 (unknown origin) using 6-carboxyfluorescein peptide as substrate preincubated with compound for 2 hrs followed by substrate addition by electrophoretic mobility shift assay.
A short description of series [15]: Glutathione reactivity assessed as compound consumption at 500 nM incubated for 16 hrs by LC-MS/MS analysis. Type of series: ADME. The following applies: glutathione solution, read-out: Drug metabolism.
Series [16] is described as follows: Selectivity index, ratio of IC50 for cytotoxicity against human MRC9 cells to IC50 for cytotoxicity against human MV4-11 cells.
Series [17] can be described thus: Glutathione reactivity assessed as compound consumption at 500 nM measured after 1 to 3 hrs by LC-MS/MS analysis. The following applies: glutathione solution, time 1-3 hrs, read-out: Activity. Type of series: ADME.
In series [18] the target is Histone deacetylase 1/2/3 (Homo sapiens) (UniProt Q13547+O15379+Q92769). Description: […] binding affinity to HDAC1/2/3 in human MV4-11 cells assessed as increase in Ac-histone-H3 level at […] incubated for 6 hrs followed by compound washout and measured after 16 hrs by Western blot analysis. Type of series: cell-based. Conditions: dose 2.5 µM.
The target in series [19] is T1, Histone deacetylase 2. Nature of the series: Binding affinity to recombinant full length HDAC2 catalytic domain Cys274 (unknown origin) assessed as formation of single covalent adduct at 50 uM incubated for 2 hrs by trypsin-digest protein mapping analysis.
In series [20] the test system is MV4-11. Nature of the series: Induction of apoptosis in human MV4-11 cells assessed as late apoptotic cells at 1 uM measured after 6 hrs by annexin V-FITC/PI staining based FACS assay (reference value: 16.21%). Type of series: functional.
A short description of series [21]: Stability in human whole blood assessed as half life at 100 uM measured upto 40 mins by LC-MS/MS analysis. Type of series: ADME, tissue-based.
Series [22] deals with MV4-11. Description: Induction of apoptosis in human MV4-11 cells assessed as healthy cells at 1 uM measured after 6 hrs by annexin V-FITC/PI staining based FACS assay (reference value: 63.50%). Type of series: functional.
The target of another series is T5, Histone deacetylase 11 (Homo sapiens, UniProt Q96DB2).
T5 sequence (Q96DB2 whole entry): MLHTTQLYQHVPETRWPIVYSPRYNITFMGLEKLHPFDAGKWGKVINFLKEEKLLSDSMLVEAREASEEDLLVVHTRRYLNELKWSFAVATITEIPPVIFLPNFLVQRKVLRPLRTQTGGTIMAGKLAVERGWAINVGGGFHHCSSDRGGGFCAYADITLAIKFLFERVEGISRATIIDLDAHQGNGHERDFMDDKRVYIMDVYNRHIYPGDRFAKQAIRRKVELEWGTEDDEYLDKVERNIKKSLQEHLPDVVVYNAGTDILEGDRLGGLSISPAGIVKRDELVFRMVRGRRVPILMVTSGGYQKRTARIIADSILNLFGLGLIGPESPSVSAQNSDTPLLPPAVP
Description: Inhibition of full length recombinant human HDAC11 expressed in Sf9 cells using 6-carboxyfluorescein peptide as substrate preincubated with compound for 6 hrs followed by substrate addition and measured after 17 hrs by electrophoretic mobility shift assay.

Series [23] relates to MV4-11. Nature of the series: Induction of apoptosis in human MV4-11 cells assessed as healthy cells at 4 uM measured after 6 hrs by annexin V-FITC/PI staining based FACS assay (reference value: 63.50%). Type of series: functional.
Series [24] can be described thus: MRT in CD-1 mouse at 10 mg/kg, ip measured upto 12 hrs by LC-MS/MS analysis. Type of series: ADME, organism-based. The following applies: in vivo.
Series [25] has as its system MV4-11. Description: Induction of apoptosis in human MV4-11 cells assessed as late apoptotic cells at 4 uM measured after 6 hrs by annexin V-FITC/PI staining based FACS assay (reference value: 16.21%). Type of series: functional.

On to `Nc1ccccc1NC(=O)c1ccc(CNC(=O)OC2CCCCC2)cc1`, for which the IC50 at Histone deacetylase 2 [1] was 274 nM; at Histone deacetylase 8 it was > 10000 nM; on Histone deacetylase 1 [2], 903 nM; in the series with RS4-11, 620 nM; on Histone deacetylase 3 [5] it was 36 nM; on Histone deacetylase 2 [7], > 1000 nM. The half-inhibitory concentration (IC50) on Histone deacetylase 1 [8] was 64 nM; on Histone deacetylase 3 [10] it was 73 nM; on Histone deacetylase 3 [12], 273 nM; with MV4-11 [13] it was 1070 nM; at Histone deacetylase 2 [14], 490 nM. Moreover, the half-life in series [3] was 311 min. Besides, the IC50 at 72 h in [4] is 10900 nM. In addition, the time of peak concentration (Tmax) in [6] was determined as 4.8 min. Also, in series [9], the AUC(0-inf) is 1810 ng·h/mL. In series [11], the peak concentration (Cmax) stood at 2700 ng/mL. For the same compound, in [15], the degraded at 16 h, 0.5 µM is < 10%. In series [16], the “Ratio IC50” value is reported as 10.

Regarding `C#CC(=O)N1CCC(OC(=O)NCc2ccc(C(=O)Nc3ccccc3N)cc2)CC1`, the IC50 was 328 nM at Histone deacetylase 2 [1], 665 nM at Histone deacetylase 1 [2], > 1000 nM at Histone deacetylase 2 [7] and 759 nM at Histone deacetylase 2 [14]. In addition, the degraded at 0.5 µM in series [17] is > 50%.

`Nc1ccccc1NC(=O)c1ccc(CNC(=O)OC2CCN(S(=O)(=O)c3c(F)c(F)cc(F)c3F)CC2)cc1`: the outcome in [18] was Active.

On to `Nc1ccccc1NC(=O)c1ccc(CNC(=O)OC2CCN(S(=O)(=O)CCl)CC2)cc1`, for which the half-inhibitory concentration (IC50) on Histone deacetylase 2 [1] is 200 nM; at Histone deacetylase 1 [2], 369 nM; in the series with RS4-11 it was 720 nM; on Histone deacetylase 2 [7], > 1000 nM; in the series on MV4-11 [13] it was 1380 nM; at Histone deacetylase 2 [14], 517 nM. Moreover, the IC50 at 72 h in [4] came out at 15900 nM. Also, in series [16], the “Ratio IC50” value was determined as 12.

For the compound `CN(C)C/C=C/C(=O)N1CCC(OC(=O)NCc2ccc(C(=O)Nc3ccccc3N)cc2)CC1`, the IC50 on Histone deacetylase 2 [1] came to 180 nM; at Histone deacetylase 1 [2], 200 nM; with RS4-11, 1240 nM; at Histone deacetylase 2 [7] it was 808 nM; with MV4-11 [13], 1800 nM; at Histone deacetylase 2 [14], 295 nM. Also, the IC50 at 72 h in series [4] is 31200 nM. In addition, the “Ratio IC50” value in series [16] is 17.

For the compound `C=CS(=O)(=O)N1CCC(OC(=O)NCc2ccc(C(=O)Nc3ccccc3N)cc2)CC1`, the half-maximal inhibitory concentration (IC50) was 380 nM at Histone deacetylase 2 [1], 445 nM on Histone deacetylase 1 [2], > 1000 nM at Histone deacetylase 2 [7] and 919 nM on Histone deacetylase 2 [14]. Further, the degraded at 0.5 µM in series [17] is > 50%. In addition, on Histone deacetylase 2 [19], the result was Active.

For the compound `Nc1ccccc1NC(=O)c1ccc(CNC(=O)OC2CCN(C(=O)CCl)CC2)cc1`, the IC50 is 720 nM at Histone deacetylase 2 [1], > 1000 nM on Histone deacetylase 1 [2], > 1000 nM at Histone deacetylase 2 [7] and > 1000 nM at Histone deacetylase 2 [14]. Moreover, the degraded at 0.5 µM in [17] is > 50%.

For `Nc1ccccc1NC(=O)c1ccc(CNC(=O)OCc2cccnc2)cc1` [ENTINOSTAT], the Activity in the series on MV4-11 [20] amounted to 23.15%; in the series on MV4-11 [22], 53.43%; in the series on MV4-11 [23], 40.57%; with MV4-11 [25], 30.45%. Also, in [21], the half-life at 100 µM is 45 min. Besides, the half-maximal inhibitory concentration (IC50) in the series on RS4-11 is 300 nM; on Histone deacetylase 11, > 1000 nM; in the series on MV4-11 [13], 710 nM. Also, the half-life in series [3] is 191 min. In [4], the half-maximal inhibitory concentration (IC50) at 72 h stood at 10200 nM. Moreover, the Tmax in series [6] came to 15 min. In [9], this compound came in with an AUC(0-inf) of 5260 ng·h/mL. The compound also gave a maximum concentration (Cmax) in series [11] of 6250 ng/mL. The degraded at 16 h, 0.5 µM in [15] was < 10%. Besides, the MRT in series [24] came to 57.6 min.

With `C=CC(=O)N1CCC[C@@H](n2nc(-c3ccc(Oc4ccccc4)cc3)c3c(N)ncnc32)C1` [IBRUTINIB], the half-life at 100 µM in [21] worked out at 64 min.

With `C=C=CC(=O)N1CCC(OC(=O)NCc2ccc(C(=O)Nc3ccccc3N)cc2)CC1`, the IC50 was 393 nM at Histone deacetylase 2 [1], 685 nM at Histone deacetylase 1 [2], > 1000 nM at Histone deacetylase 2 [7] and 823 nM at Histone deacetylase 2 [14].

On to `C=CC(=O)N1CCC(OC(=O)NCc2ccc(C(=O)Nc3ccccc3N)cc2)CC1`, for which the concentration for half-maximal inhibition (IC50) was 379 nM on Histone deacetylase 2 [1]; 592 nM on Histone deacetylase 1 [2]; 1530 nM with RS4-11; > 1000 nM on Histone deacetylase 2 [7]; 2320 nM in the series with MV4-11 [13]; 861 nM at Histone deacetylase 2 [14]. Also, the IC50 at 72 h in series [4] turned out to be 21600 nM. Also, the “Ratio IC50” value in series [16] is listed as 9.
